49 compounds from patent US10919896B2, “Preparation and uses of pyrimidinone derivatives” (Cancer Research Technology Limited, priority 2016, dated 2021) can be followed below.

Counter-ions that a name gives are not always drawn.

Cdc7/Dbf4, sequence (O00311 whole entry): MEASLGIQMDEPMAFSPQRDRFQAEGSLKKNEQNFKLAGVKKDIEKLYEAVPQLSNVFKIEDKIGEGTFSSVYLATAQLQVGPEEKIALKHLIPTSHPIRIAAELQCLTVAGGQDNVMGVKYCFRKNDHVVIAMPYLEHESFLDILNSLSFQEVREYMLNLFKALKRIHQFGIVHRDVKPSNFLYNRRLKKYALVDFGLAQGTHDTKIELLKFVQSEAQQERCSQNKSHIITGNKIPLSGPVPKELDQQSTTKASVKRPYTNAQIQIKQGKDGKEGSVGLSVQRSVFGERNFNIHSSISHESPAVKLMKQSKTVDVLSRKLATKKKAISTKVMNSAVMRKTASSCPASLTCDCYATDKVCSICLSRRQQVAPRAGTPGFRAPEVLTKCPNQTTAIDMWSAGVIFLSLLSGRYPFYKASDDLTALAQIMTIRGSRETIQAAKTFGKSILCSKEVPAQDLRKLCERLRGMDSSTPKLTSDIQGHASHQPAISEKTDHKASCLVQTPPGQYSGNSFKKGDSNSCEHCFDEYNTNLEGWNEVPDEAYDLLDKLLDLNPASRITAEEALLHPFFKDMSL
Cdc7/Dbf4, sequence (Q9UBU7 whole entry partner): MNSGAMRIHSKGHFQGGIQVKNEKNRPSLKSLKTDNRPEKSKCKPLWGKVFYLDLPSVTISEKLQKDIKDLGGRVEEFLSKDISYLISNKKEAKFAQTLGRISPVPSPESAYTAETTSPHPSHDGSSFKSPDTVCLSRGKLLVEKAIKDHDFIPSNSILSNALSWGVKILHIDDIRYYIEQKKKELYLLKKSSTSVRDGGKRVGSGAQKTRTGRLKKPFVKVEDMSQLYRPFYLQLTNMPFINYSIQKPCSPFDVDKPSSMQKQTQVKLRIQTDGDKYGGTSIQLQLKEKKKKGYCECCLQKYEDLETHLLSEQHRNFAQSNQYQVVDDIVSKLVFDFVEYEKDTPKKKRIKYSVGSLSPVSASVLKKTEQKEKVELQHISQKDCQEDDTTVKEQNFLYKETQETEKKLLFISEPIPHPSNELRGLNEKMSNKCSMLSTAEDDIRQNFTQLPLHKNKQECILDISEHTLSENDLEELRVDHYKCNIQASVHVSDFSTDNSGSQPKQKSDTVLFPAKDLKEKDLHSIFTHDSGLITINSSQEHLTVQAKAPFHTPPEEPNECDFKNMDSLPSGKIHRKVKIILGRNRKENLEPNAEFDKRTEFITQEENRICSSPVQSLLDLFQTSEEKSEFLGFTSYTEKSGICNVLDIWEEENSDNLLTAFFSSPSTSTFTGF
Cdc7/ASK, sequence (O00311 whole entry): as the sequence (O00311 whole entry) above
Cdc7/ASK, sequence (Q9UBU7 whole entry partner): as the sequence (Q9UBU7 whole entry partner) above

In the first assay the target is Cdc7/Dbf4 (Homo sapiens, UniProt O00311). The assay can be described thus: Cdc7 Biochemical Assay Method 3: Cdc7/Dbf4 Enzyme TR-FRET Assay measuring pS40MCM2. The note with it: 1 μM ATP, read-out: Biochemical Method 3 (pIC50) (converted). How it is done:
This protocol describes a method for assaying a compounds' ability to inhibit Cdc7 activity by measuring pS40MCM2 levels in a Cdc7/Dbf4 Enzyme TR-FRET Assay.
2.5 nM Cdc7/Dbf4 was incubated with 100 nM of biotin-labelled peptide 35-TDALTS(pS)PGRDLP in the presence of 1 μM ATP at 25° C. for 120 minutes. The phosphorylation of the peptide was detected using TR-FRET. Anti-Mcm2 (pS40) antibody, Terbium anti-rabbit secondary antibody and Streptavidin-Alexa Fluor488 form the detection system.
For `O=c1[nH]c(-c2ccnc(F)c2)nc(N2CCCC2CN2CCOCC2)c1Cl` (stereo not shown) [Compound 246], the IC50 was 1000 nM.
On the same count and under the same terms, the result for `O=c1[nH]c(-c2ccnc(F)c2)nc(N2CCCC(F)(F)CC2)c1Cl` [Compound 204] reads 4.07 nM; that for `CCNC(=O)C1CCN(c2nc(-c3ccnc(F)c3)[nH]c(=O)c2Cl)CC1` [Compound 257], 6.03 nM.
Still for that read-out and setting: the result for `NC(=O)N1CCN(c2nc(-c3ccnc(F)c3)[nH]c(=O)c2Cl)CC1` [Compound 239] reads 1.1 nM; that for `O=c1[nH]c(-c2ccnc(F)c2)nc(O[C@@H]2CCCNC2)c1Cl` [Compound 330], 0.955 nM; that for `O=c1[nH]c(-c2ccnc(F)c2)nc(N2CCN(c3nc[nH]n3)CC2)c1Cl` [Compound 295], 0.891 nM.
The same measure, in the same setting: next, `O=c1[nH]c(-c2ccnc(F)c2)nc(CN2CCNCC2)c1Cl` [Compound 398]: 295 nM; `NC(=O)[C@@H]1CCN(c2nc(-c3ccnc(F)c3)[nH]c(=O)c2Cl)C1` [Compound 249]: 9.33 nM.
Take `O=c1[nH]c(-c2ccnc(F)c2)nc(OCc2ccccc2)c1Cl` [Compound 294]: the IC50 is 182 nM.
The same measure, in the same setting: the result for `C[C@H]1CCCCN1c1nc(-c2ccnc(F)c2)[nH]c(=O)c1Cl` [Compound 280] reads 0.871 nM; that for `CCN(c1nc(-c2ccnc(F)c2)[nH]c(=O)c1Cl)C1CCOCC1` [Compound 266], 36.3 nM.
The same measure, in the same setting: the result for `CN1CCN(C2CCN(c3nc(-c4ccnc(F)c4)[nH]c(=O)c3Cl)CC2)CC1` [Compound 265] reads 4.07 nM; that for `O=c1[nH]c(-c2ccnc(F)c2)nc(SC2CCOCC2)c1Cl` [Compound 191], 3.72 nM; that for `O=c1[nH]c(-c2ccnc(F)c2)nc(OC2CCOCC2)c1Cl` [Compound 305], 2 nM.
Consider `C[C@H]1COC[C@H](C)N1c1nc(-c2ccnc(F)c2)[nH]c(=O)c1Cl` [Compound 342], for which the IC50 was 129 nM.
On the same count and under the same terms, the result for `O=c1[nH]c(-c2ccnc(F)c2)nc(N2CCC3(CCNC3)CC2)c1Cl` [Compound 242] reads 1.15 nM; that for `O=c1[nH]c(-c2ccnc(F)c2)nc(N2CCC3(CC2)OCCO3)c1Cl` [Compound 236], 14.5 nM.
The same measure, in the same setting: next, `O=C1NC(=O)C2(CCN(c3nc(-c4ccnc(F)c4)[nH]c(=O)c3Cl)CC2)N1` [Compound 233]: 2.19 nM.
On the same count and under the same terms, the result for `CC1(C)CNCCC1Nc1nc(-c2ccnc(F)c2)[nH]c(=O)c1Cl` (stereo not shown) [Compound 211] reads 17.4 nM; that for `O=c1[nH]c(-c2ccnc(F)c2)nc(N2CCC3(CCNCC3)C2)c1Cl` [Compound 230], 6.61 nM; that for `NC[C@H]1CCN(c2nc(-c3ccnc(F)c3)[nH]c(=O)c2Cl)C1` [Compound 219], 6.76 nM.
Regarding `O=c1[nH]c(-c2ccnc(F)c2)nc(N2CCOCC(O)C2)c1Cl` (stereo not shown) [Compound 207], the IC50 was 1.29 nM.
The same measure, in the same setting: next, `NC(=O)[C@H]1CCCN1c1nc(-c2ccnc(F)c2)[nH]c(=O)c1Cl` [Compound 247]: 4.57 nM; `O=c1[nH]c(-c2ccnc(F)c2)nc(N2CCOC(CN3CCCCC3)C2)c1Cl` (stereo not shown) [Compound 202]: 10 nM; `O=c1[nH]c(-c2ccnc(F)c2)nc(N2CCc3nncn3CC2)c1Cl` [Compound 354]: 2 nM.
In the case of `O=c1[nH]c(-c2ccnc(F)c2)nc(N2CCC[C@H](Nc3ccccc3)C2)c1Cl` [Compound 209], the IC50 was 85.1 nM.
On the same count and under the same terms, next, `CN(c1nc(-c2ccnc(F)c2)[nH]c(=O)c1Cl)[C@H]1CCCNC1` [Compound 267]: 3.89 nM; `CC1CN(C)CCCN1c1nc(-c2ccnc(F)c2)[nH]c(=O)c1Cl` (stereo not shown) [Compound 302]: 25.1 nM; `O=c1[nH]c(-c2ccnc(F)c2)nc(OC2CNC2)c1Cl` [Compound 194]: 14.5 nM.
For `CN(c1nc(-c2ccnc(F)c2)[nH]c(=O)c1Cl)C1CCOCC1` [Compound 229], the IC50 is 8.51 nM.
In the case of `O=c1[nH]c(-c2ccnc(F)c2)nc(N2CCn3c(nnc3C(F)(F)F)C2)c1Cl` [Compound 291], the IC50 is 4.17 nM.
Still for that read-out and setting: next, `O=c1[nH]c(-c2ccnc(F)c2)nc(O[C@H]2CCOC2)c1Cl` [Compound 200]: 8.13 nM; `O=c1[nH]c(-c2ccnc(F)c2)nc(N2CCCC23CCNC3)c1Cl` (stereo not shown) [Compound 259]: 2.82 nM; `O=c1[nH]c(-c2ccnc(F)c2)nc(N2CCOC3(CCOCC3)C2)c1Cl` [Compound 292]: 11.5 nM.

In a further assay the target is Cdc7/ASK (Homo sapiens, UniProt O00311). The assay can be described thus: Cdc7 Biochemical Assay Method 1: 384 well ELISA, whole protein substrate MCM2, antibody against Phospho MCM2 (S53). The arrangement: purchased. The note with it: 2 μM ATP, read-out: Biochemical Method 1 (pIC50) (converted). How it is done:
This protocol describes a method for assaying Cdc7/ASK for activity. The assay is a 384 well ELISA assay, utilising a whole protein substrate (MCM2) and an antibody against Phospho MCM2 (S53). This site is thought to be specific to Cdc7/ASK phosphorylation and the assay has been validated using knockout mutants. Reagents • TBS: 25 mM Tris pH 7.2, 150 mM NaCl. (Dilute 10× stock by 1:10). • Wash Buffer: TBS+0.05% Tween 20. (Add 100 mL 1 M Tris pH 7.2, 120 mL 5 M NaCl and 2 mL 100% Tween 20 per 4 L). • Kinase Reaction Buffer: 50 mM Tris-HCl pH 8.5, 10 mM MgCl2, 1 mM DTT. (Dilute 10× stock by 1:10 and add 100 μL 1M DTT per 100 mL prior to assay). • Diethanolamine Buffer: 1 M diethanolamine pH 9.8, 0.5 mM MgCl2. • Stop Solution: 1 M NaOH. • MCM2 was expressed and purified in-house and used in the assay at a final assay concentration of 436 ng/well. • Cdc7/ASK is purchased from commercial suppliers and used in the assay at a final assay concentration of 37.97 ng/well or 20.63 nM. • ATP used as a final assay concentration of 2 μM. • Primary Antibody: Rabbit anti-Phospho MCM2 (S53 Antibody (BL3353)), is purchased from commercial suppliers at 0.2 mg/mL and used at a final assay concentration by diluting 1:800 in TBS. • Secondary Antibody: Anti-Rabbit/AP Antibody is supplied is purchased from commercial suppliers at 1 mg/mL and used at a final assay concentration by diluting 1:2000 in TBS. • Development Reagent: Dissolve one 20 mg PNPP tablet (Sigma, product […], 20 mg per tablet) per 20 mL diethanolamine Buffer (or one 5 mg PNPP tablet per 5 mL diethanolamine buffer). Cover in foil and leave shaking on a roller shaker at room temperature for up to an hour to dissolve. Methods • 1. Add 20 μL 1× working stock of Substrate (MCM2) in TBS to all wells of a clear, 384 well, Nickel-chelate microplate to give a final concentration of […]. Incubate at room temperature for at least 1 hour. Plates can be pre-coated for 1 hour and stored at 4° C. for up to 8 days. • 2. Wash with TBS+0.05% Tween 20 (80 μL×3). • 3. Add 2 μL 10× test compounds, including the positive control, in 40% DMSO/water to 'test' wells. Add 2 μL 40% DMSO/water to 'control' and 'blank' wells. The final DMSO concentration will be 4%. • 4. Add 13 μL CDC7/ASK Kinase (1.5× stock) in Kinase Reaction Buffer to 'test' and 'control' wells to give a final concentration of […]. Add 13 μL Kinase Reaction Buffer to 'blank' wells. • 5. Add 5 μL ATP (4× stock) in Kinase Reaction Buffer to all wells to give a final concentration of 2 μM. • 6. Incubate at room temperature for 90 minutes. • 7. Wash with TBS+0.05% Tween 20 (80 μL×3). • 8. Add 20 μL 1× working solution of Primary Antibody in TBS to all wells. Incubate at room temperature for 30 minutes. • 9. Wash with TBS+0.05% Tween 20 (80 μL×3). • 10. Add 20 μL 1× working solution of Secondary Antibody in TBS to all wells. Incubate at room temperature for 30 minutes. • 11. Wash with TBS+0.05% Tween 20 (80 μL×3). • 12. Add 20 μL 1× Development Reagent to all wells. • 13. Incubate at room temperature for 2 hours. Stop the reaction by adding 20 μL Stop Solution to all wells and record Absorbance on a Pherastar plate reader. Percentage inhibition values were calculated from absorbance values, using the no compound (DMSO) and no enzyme control values as 0% and 100% inhibition, respectively. IC50 determination was performed with ExcelFit software (IDBS) using curve fit 205. Z' factors were determined for each plate tested and were all above 0.5. Method 2
Regarding `CC(C)(O)[C@@H]1CN(c2nc(-c3ccncc3)[nH]c(=O)c2Cl)CCN1` [Compound 407, 5-chloro-4-[(3S)-3-(1-hydroxy-1-methyl-ethyl)piperazin-1-yl]-2-(4-pyridyl)-1H-pyrimidin-6-one], the IC50 is 60.3 nM.
The same measure, in the same setting: next, `Cc1ncsc1C(=O)N1CCC(c2nc(-c3ccncc3)[nH]c(=O)c2Cl)CC1` [Compound 67]: 1.55 nM; `O=C(c1ccccc1I)N1CCC(c2nc(-c3ccncc3)[nH]c(=O)c2Cl)CC1` [Compound 49]: 15.8 nM; `O=c1[nH]c(-c2ccnc(F)c2)nc(C2(F)CCOCC2)c1Cl` [Compound 18]: 0.794 nM.
On the same count and under the same terms, the result for `Cn1cnc(C(=O)N2CCC(c3nc(-c4ccncc4)[nH]c(=O)c3Cl)CC2)c1` [Compound 55] reads 2.09 nM.
Take `CC(C)(C)OC(=O)N1CCN(c2nc(-c3ccncc3)[nH]c(=O)c2Cl)CC1` [Compound 32]: the IC50 is 100 nM.
The same measure, in the same setting: next, `CC(=O)c1ccc(C(=O)N2CCC(c3nc(-c4ccncc4)[nH]c(=O)c3Cl)CC2)cc1` [Compound 60]: 1.91 nM; `CC(=O)N1CCC(c2nc(-c3ccncc3)[nH]c(=O)c2Cl)CC1` [Compound 40]: 8.13 nM.
On the same count and under the same terms, next, `COCCC1CN(c2nc(-c3ccncc3)[nH]c(=O)c2Cl)CCO1` (stereo not shown) [Compound 99]: 85.1 nM; `O=c1[nH]c(-c2ccncc2)nc(C2CCN(S(=O)(=O)c3ccccc3)CC2)c1Cl` [Compound 37, 4-[1-(benzenesulfonyl)-4-piperidyl]-5-chloro-2-(4-pyridyl)-1H-pyrimidin-6-one]: 30.2 nM.
`O=c1[nH]c(-c2ccncc2)nc(C2CCCNC2)c1Cl` (stereo not shown) [Compound 8]: the IC50 was 3.63 nM.
Same read-out and setting: the result for `O=c1[nH]c(-c2ccncc2)nc(C2CCOCC2)c1I` [Compound 4, 5-Iodo-2-(4-pyridyl)-4-tetrahydropyran-4-yl-1H-pyrimidin-6-one] reads 331 nM; that for `COC(=O)[C@@H]1CN(c2nc(-c3ccncc3)[nH]c(=O)c2Cl)CCN1` [Compound 163, methyl (2S)-4-[5-chloro-6-oxo-2-(4-pyridyl)-1H-pyrimidin-4-yl]piperazine-2-carboxylate hydrochloride], 67.6 nM.
On the same count and under the same terms, next, `O=c1[nH]c(-c2ccnc(C(F)(F)F)c2)nc(C2CCOCC2)c1Cl` [Compound 24]: 1020 nM.
On the same count and under the same terms, next, `O=C(C1CC1(F)F)N1CCC(c2nc(-c3ccncc3)[nH]c(=O)c2Cl)CC1` (stereo not shown) [Compound 70]: 15.8 nM.
